Measurements as given in publication PMC10817917, “Alkyl deoxyglycoside-polymyxin combinations against critical priority carbapenem-resistant gram-negative bacteria” (Scientific Reports, 2024).
Like-named read-outs stand apart in the source and are kept apart here.

Key:
HEK-293T cells = experiment: Resazurin cell viability assay (cytotoxicity); type: cell-based, human; conditions: Homo sapiens, HEK-293T, 72 h, read-out: IC50
Summary of the method: (§1)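 HEK-293T and Caco-2 cells (1.5 × 10^4/well, RPMI 1640 with 10% FBS) exposed 72 h at 37 °C to glycosides at final 100 to 10 µM, alone or with PMB or colistin at final 0.5, 0.25 or 0.125 µg/mL; max DMSO 0.33%. Resazurin added 4 h, read 570/600 nm; IC50 from dose-response fits, mean ± SD of three replicates.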

Caco-2 cells = experiment: Resazurin cell viability assay (cytotoxicity); type: cell-based, human; conditions: Homo sapiens, Caco-2, 72 h, read-out: IC50
Summary of the method: as §1

E. coli ATCC 25922 = experiment: Broth microdilution MIC/MBC, glycosides with or without polymyxins; type: cell-based, Escherichia coli; conditions: for MIC: Escherichia coli, ATCC25922
E. coli NCTC 13846 = experiment: as above; type: cell-based, Escherichia coli; conditions: strain B
E. cloacae CQ1941 = experiment: as above; type: cell-based; conditions: for MIC: Enterobacter cloacae, CQ1941
P. aeruginosa CQ4924 = experiment: Broth microdilution MIC, glycosides with or without polymyxins; type: cell-based, Pseudomonas aeruginosa; conditions: for MIC: Pseudomonas aeruginosa, CQ4924
K. pneumoniae CQ1942 = experiment: as above; type: cell-based, Klebsiella pneumoniae; conditions: for MIC: Klebsiella pneumoniae, CQ1942
[1] = tested alone (no polymyxin adjuvant)
[2] = alone, read-out: MICA (MIC of each compound individually)
[3] = combination with the lowest FICI
[4] = compound + colistin, lowest FICI

## CCCCCCCCCCCCO[C@@H]1C[C@@H](O)[C@H](O)[C@@H](CO)O1 [Compound 4, dodecyl 2-deoxy-α-D-arabino-hexopyranoside]
HEK-293T cells; Colistin 0.5 μg/mL
  IC50: > 100 µM
HEK-293T cells; No polymyxin
  IC50: > 100 µM
HEK-293T cells; PMB 0.5 μg/mL
  IC50: > 100 µM
HEK-293T cells; [1]
  IC50: > 33 µg/mL
Caco-2 cells; Colistin 0.5 μg/mL
  IC50: > 100 µM
Caco-2 cells; No polymyxin
  IC50: > 100 µM
Caco-2 cells; [1]
  IC50: > 33 µg/mL
E. coli ATCC 25922; Cpd conc. 0.4 μg/mL, strain A
  MIC of colistin in combination with the compound: 0.5 µg/mL
E. coli ATCC 25922; Cpd conc. 0.8 μg/mL, strain A
  MIC of colistin in combination with the compound: 0.5 µg/mL
E. coli ATCC 25922; Cpd conc. 3.125 μg/mL, strain A
  MIC of colistin in combination with the compound: 0.5 µg/mL
E. coli ATCC 25922; Cpd conc. 6.25 μg/mL, strain A
  MIC of colistin in combination with the compound: 0.5 µg/mL
E. coli ATCC 25922; Cpd conc. 12.5 μg/mL, strain A
  MIC of colistin in combination with the compound: 0.5 µg/mL
E. coli ATCC 25922; Cpd conc. […], strain A
  MIC of colistin in combination with the compound: 0.5 µg/mL
E. coli ATCC 25922; agent alone, no adjuvant (polymyxin conc. 0), strain A, read-out: MIC
  MIC: > 100 µg/mL
E. coli ATCC 25922; [2]
  MIC: > 100 µg/mL
E. coli ATCC 25922; PMB 0.25 μg/mL, strain A
  MIC of compound in combination with PMB: > 100 µg/mL
E. coli ATCC 25922; PMB 0.5 μg/mL, strain A
  MIC of compound in combination with PMB: ≤ 0.1 µg/mL
E. coli ATCC 25922; colistin 0.5 μg/mL, strain A
  MIC of compound in combination with colistin: ≤ 0.1 µg/mL
E. coli ATCC 25922; [3]
  MICA(A + B) (MIC of compound in combination with colistin): 0.4 µg/mL
  MICB(A + B) (MIC of colistin in combination with compound): 0.5 µg/mL
E. coli ATCC 25922; compound + colistin
  Interpretation (of FICI): Indifferent (1.0 to 4.0 were indifferent)
E. coli ATCC 25922; [4]
  FICI: 1.002
E. coli NCTC 13846; Cpd conc. 0.4 μg/mL
  MIC of colistin in combination with the compound: > 0.5 µg/mL
E. coli NCTC 13846; Cpd conc. 0.8 μg/mL
  MIC of colistin in combination with the compound: > 0.5 µg/mL
E. coli NCTC 13846; Cpd conc. 3.125 μg/mL
  MIC of colistin in combination with the compound: > 0.5 µg/mL
E. coli NCTC 13846; Cpd conc. 6.25 μg/mL
  MIC of colistin in combination with the compound: > 0.5 µg/mL
E. coli NCTC 13846; Cpd conc. 12.5 μg/mL
  MIC of colistin in combination with the compound: > 0.5 µg/mL
E. coli NCTC 13846; Cpd conc. […]
  MIC of colistin in combination with the compound: > 0.5 µg/mL
E. coli NCTC 13846; Escherichia coli, NCTC13846, agent alone, no adjuvant (polymyxin conc. 0), read-out: MIC
  MIC: > 100 µg/mL
E. coli NCTC 13846; PMB 0.25 μg/mL
  MIC of compound in combination with PMB: > 100 µg/mL
E. coli NCTC 13846; PMB 0.5 μg/mL
  MIC of compound in combination with PMB: > 100 µg/mL
E. coli NCTC 13846; colistin 0.25 μg/mL
  MIC of compound in combination with colistin: > 100 µg/mL
E. coli NCTC 13846; colistin 0.5 μg/mL
  MIC of compound in combination with colistin: > 100 µg/mL
E. cloacae CQ1941; Cpd conc. 0.4 μg/mL, strain D
  MIC of colistin in combination with the compound: 0.5 µg/mL
E. cloacae CQ1941; Cpd conc. 0.8 μg/mL, strain D
  MIC of colistin in combination with the compound: 0.5 µg/mL
E. cloacae CQ1941; Cpd conc. 3.125 μg/mL, strain D
  MIC of colistin in combination with the compound: 0.5 µg/mL
E. cloacae CQ1941; Cpd conc. 6.25 μg/mL, strain D
  MIC of colistin in combination with the compound: 0.5 µg/mL
E. cloacae CQ1941; Cpd conc. 12.5 μg/mL, strain D
  MIC of colistin in combination with the compound: 0.5 µg/mL
E. cloacae CQ1941; Cpd conc. […], strain D
  MIC of colistin in combination with the compound: 0.5 µg/mL
E. cloacae CQ1941; agent alone, no adjuvant (polymyxin conc. 0), strain D, read-out: MIC
  MIC: > 100 µg/mL
E. cloacae CQ1941; [2]
  MIC: > 100 µg/mL
E. cloacae CQ1941; PMB 0.25 μg/mL, strain D
  MIC of compound in combination with PMB: > 100 µg/mL
E. cloacae CQ1941; PMB 0.5 μg/mL, strain D
  MIC of compound in combination with PMB: ≤ 0.1 µg/mL
E. cloacae CQ1941; colistin 0.25 μg/mL, strain D
  MIC of compound in combination with colistin: > 100 µg/mL
E. cloacae CQ1941; colistin 0.5 μg/mL, strain D
  MIC of compound in combination with colistin: ≤ 0.1 µg/mL
E. cloacae CQ1941; [3]
  MICA(A + B) (MIC of compound in combination with colistin): 0.4 µg/mL
  MICB(A + B) (MIC of colistin in combination with compound): 0.5 µg/mL
E. cloacae CQ1941; compound + colistin
  Interpretation (of FICI): Indifferent (1.0 to 4.0 were indifferent)
E. cloacae CQ1941; [4]
  FICI: 1.002
P. aeruginosa CQ4924; Cpd conc. 0.4 μg/mL, strain H
  MIC of colistin in combination with the compound: > 0.5 µg/mL
P. aeruginosa CQ4924; Cpd conc. 0.8 μg/mL, strain H
  MIC of colistin in combination with the compound: > 0.5 µg/mL
P. aeruginosa CQ4924; Cpd conc. 3.125 μg/mL, strain H
  MIC of colistin in combination with the compound: > 0.5 µg/mL
P. aeruginosa CQ4924; Cpd conc. 6.25 μg/mL, strain H
  MIC of colistin in combination with the compound: > 0.5 µg/mL
P. aeruginosa CQ4924; Cpd conc. 12.5 μg/mL, strain H
  MIC of colistin in combination with the compound: > 0.5 µg/mL
P. aeruginosa CQ4924; Cpd conc. […], strain H
  MIC of colistin in combination with the compound: > 0.5 µg/mL
P. aeruginosa CQ4924; PMB 0.25 μg/mL, strain H
  MIC of compound in combination with PMB: > 100 µg/mL
P. aeruginosa CQ4924; PMB 0.5 μg/mL, strain H
  MIC of compound in combination with PMB: > 100 µg/mL
P. aeruginosa CQ4924; agent alone, no adjuvant (polymyxin conc. 0), strain H, read-out: MIC
  MIC: > 100 µg/mL
P. aeruginosa CQ4924; [2]
  MIC: > 100 µg/mL
P. aeruginosa CQ4924; colistin 0.25 μg/mL, strain H
  MIC of compound in combination with colistin: > 100 µg/mL
K. pneumoniae CQ1942; Cpd conc. 0.4 μg/mL, strain E
  MIC of colistin in combination with the compound: 0.5 µg/mL
K. pneumoniae CQ1942; Cpd conc. 0.8 μg/mL, strain E
  MIC of colistin in combination with the compound: 0.5 µg/mL
K. pneumoniae CQ1942; Cpd conc. 3.125 μg/mL, strain E
  MIC of colistin in combination with the compound: 0.5 µg/mL
K. pneumoniae CQ1942; Cpd conc. 6.25 μg/mL, strain E
  MIC of colistin in combination with the compound: 0.5 µg/mL
K. pneumoniae CQ1942; Cpd conc. 12.5 μg/mL, strain E
  MIC of colistin in combination with the compound: 0.5 µg/mL
K. pneumoniae CQ1942; Cpd conc. […], strain E
  MIC of colistin in combination with the compound: 0.5 µg/mL
K. pneumoniae CQ1942; agent alone, no adjuvant (polymyxin conc. 0), strain E, read-out: MIC
  MIC: > 100 µg/mL
K. pneumoniae CQ1942; [2]
  MIC: > 100 µg/mL
K. pneumoniae CQ1942; PMB 0.25 μg/mL, strain E
  MIC of compound in combination with PMB: > 100 µg/mL
K. pneumoniae CQ1942; PMB 0.5 μg/mL, strain E
  MIC of compound in combination with PMB: 1.6 µg/mL
K. pneumoniae CQ1942; colistin 0.25 μg/mL, strain E
  MIC of compound in combination with colistin: > 100 µg/mL
K. pneumoniae CQ1942; colistin 0.5 μg/mL, strain E
  MIC of compound in combination with colistin: ≤ 0.1 µg/mL
K. pneumoniae CQ1942; [3]
  MICA(A + B) (MIC of compound in combination with colistin): 0.4 µg/mL
  MICB(A + B) (MIC of colistin in combination with compound): 0.5 µg/mL
K. pneumoniae CQ1942; compound + colistin
  Interpretation (of FICI): Indifferent (1.0 to 4.0 were indifferent)
K. pneumoniae CQ1942; [4]
  FICI: 1.002
